Patent US11524966B1 (Valo Early Discovery, Inc., priority 2017, dated 2022)
pIC50: −log10 of the molar value.

Biological target: T1, USP28 (His-tagged USP28-FL-mammalian) (Homo sapiens, UniProt Q96RU2)
T1 construct: Expression of USP28 (1-1077)-TEV-6*His (pTT5 vector); made in house; host or cells: Expi293f cells (pTT5 vector)
T1 sequence (Q96RU2 1-1077): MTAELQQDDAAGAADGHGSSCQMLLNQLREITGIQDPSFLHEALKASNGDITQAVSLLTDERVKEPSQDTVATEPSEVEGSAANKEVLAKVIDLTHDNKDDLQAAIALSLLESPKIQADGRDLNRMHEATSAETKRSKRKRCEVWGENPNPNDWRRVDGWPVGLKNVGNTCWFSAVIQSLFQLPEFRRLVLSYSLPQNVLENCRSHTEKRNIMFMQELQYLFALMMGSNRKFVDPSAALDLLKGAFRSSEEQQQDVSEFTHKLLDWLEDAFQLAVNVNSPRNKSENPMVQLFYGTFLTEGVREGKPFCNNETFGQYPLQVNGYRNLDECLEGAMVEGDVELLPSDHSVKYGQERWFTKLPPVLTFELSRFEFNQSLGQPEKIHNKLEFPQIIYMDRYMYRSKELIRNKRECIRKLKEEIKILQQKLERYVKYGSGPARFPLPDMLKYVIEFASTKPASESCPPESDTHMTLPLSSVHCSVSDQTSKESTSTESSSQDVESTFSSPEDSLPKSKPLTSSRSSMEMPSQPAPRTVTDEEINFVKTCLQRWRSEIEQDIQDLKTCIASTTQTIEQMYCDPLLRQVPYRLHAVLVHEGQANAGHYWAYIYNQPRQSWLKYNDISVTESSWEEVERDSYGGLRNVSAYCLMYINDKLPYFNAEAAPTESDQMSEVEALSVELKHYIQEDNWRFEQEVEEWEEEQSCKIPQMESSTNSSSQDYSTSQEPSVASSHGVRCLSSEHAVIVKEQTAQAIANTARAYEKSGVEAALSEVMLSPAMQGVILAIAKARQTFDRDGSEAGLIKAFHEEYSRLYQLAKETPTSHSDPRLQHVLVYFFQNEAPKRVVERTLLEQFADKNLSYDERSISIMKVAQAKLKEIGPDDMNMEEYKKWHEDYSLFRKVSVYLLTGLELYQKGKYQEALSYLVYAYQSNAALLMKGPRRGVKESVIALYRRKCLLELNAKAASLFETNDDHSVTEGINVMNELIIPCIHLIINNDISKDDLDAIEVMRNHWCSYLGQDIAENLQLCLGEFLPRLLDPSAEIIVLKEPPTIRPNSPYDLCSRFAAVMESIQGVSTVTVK
Test: Ubiquitin-Rhodamine 110 Assay for USP28 Activity, Example A-1(a)
Assay type: biochemical
Conditions: Ubiquitin-Rhodamine 110 assay, Example A-1(a); read-out: USP28 A-1(a) IC50 range
Procedure, shortened: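 Full-length His-tagged human USP28 (1-1077, Expi293f-expressed), […], with 25 nM Ub-Rh110 (<<Km) in pH 8.0 Tris buffer with BME, BGG, Triton X-100. 10-point dilutions (25 μM-1.3 nM), 45 min at room temperature, citric acid stop, fluorescence 485/535 nm; IC50 by 4-parameter fit.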

Row | Structure (SMILES) | pIC50
1 | CO[C@H]1CN(c2cc3c(cc2C#N)C[C@@H](NC(=O)c2sc4nc(C)ccc4c2N)CC3)C[C@@H]1N [Example 201, 3-amino-N-[(2S)-6-[(3S,4S)-3-amino-4-methoxypyrrolidin-1-yl]-7-cyano-1,2,3,4-tetrahydronaphthalen-2-yl]-6-methylthieno[2,3-b]pyridine-2-carboxamide] | 7.30 to 9.00
2 | Cc1ccc2c(N)c(C(=O)N[C@H]3COc4cc(N5C[C@H](OC(C)C)[C@@H](N)C5)ccc4C3)sc2n1 [Example 202, 3-amino-N-[(3R)-7-[(3S,4S)-3-amino-4-(propan-2-yloxy)pyrrolidin-1-yl]-3,4-dihydro-2H-1-benzopyran-3-yl]6-methylthieno[2,3-b]pyridine-2-carboxamide] | 7.30 to 9.00
3 | CO[C@H]1CN(c2ccc3c(n2)CC[C@H](NC(=O)c2sc4nc(C)c(F)cc4c2N)C3)C[C@@H]1N [Example 203, 3-amino-N-[(6S)-2-[(3S,4S)-3-amino-4-methoxypyrrolidin-1-yl]-5,6,7,8-tetrahydroquinolin-6-yl}-5-fluoro-6-methylthieno[2,3-b]pyridine-2-carboxamide] | 6.70 to 7.30
4 | Cc1nc2sc(C(=O)N[C@H]3CCc4nc(N5CCNCC5)ccc4C3)c(N)c2cc1F [Example 204, 3-amino-5-fluoro-6-methyl-N-[(6S)-2-(piperazin-1-yl)-5,6,7,8-tetrahydroquinolin-6-yl]thieno[2,3-b]pyridine-2-carboxamide] | 7.30 to 9.00
5 | Cc1ccc2c(N)c(C(=O)N[C@H]3Cc4ccc(N5CCNCC5)nc4[C@@H](C)C3)sc2n1 [Example 206, 3-amino-6-methyl-N-[(6R,8S)-8-methyl-2-(piperazin-1-yl)-5,6,7,8-tetrahydroquinolin-6-yl]thieno[2,3-b]pyridine-2-carboxamide] | 6.70 to 7.30
6 | Cc1ccc2c(N)c(C(=O)N[C@@H]3Cc4ccc(N5CCNCC5)nc4[C@H](C)C3)sc2n1 [Example 207, 3-amino-6-methyl-N-[(6S,8R)-8-methyl-2-(piperazin-1-yl)-5,6,7,8-tetrahydroquinolin-6-yl]thieno[2,3-b]pyridine-2-carboxamide] | 5.70 to 6.70
7 | Cc1ccc2c(N)c(C(=O)N[C@H]3Cc4ccc(N5CCNCC5)nc4[C@H](C)C3)sc2n1 [Example 208, 3-amino-6-methyl-N-[(6R,8R)-8-methyl-2-(piperazin-1-yl)-5,6,7,8-tetrahydroquinolin-6-yl]thieno[2,3-b]pyridine-2-carboxamide] | 7.30 to 9.00
8 | Cc1ccc2c(N)c(C(=O)N[C@H]3COc4cc(N5C6CNCC5COC6)ccc4C3)sc2n1 [Example 209, 3-amino-6-methyl-N-[(3R)-7-{3-oxa-7,9-diazabicyclo[3.3.1]nonan-9-yl}-3,4-dihydro-2H-1-benzopyran-3-yl]thieno[2,3-b]pyridine-2-carboxamide] | 7.30 to 9.00
9 | CO[C@@]1(C)CN(c2ccc3c(n2)CC[C@H](NC(=O)c2sc4nc(C)ccc4c2N)C3)C[C@@H]1N [Example 210, 3-amino-N-[(6S)-2-[(3S,4S)-4-amino-3-methoxy-3-methylpyrrolidin-1-yl]-5,6,7,8-tetrahydroquinolin-6-yl]-6-methylthieno[2,3-b]pyridine-2-carboxamide] | 6.70 to 7.30
10 | CO[C@]1(C)CN(c2ccc3c(n2)CC[C@H](NC(=O)c2sc4nc(C)ccc4c2N)C3)C[C@H]1N [Example 211, 3-amino-N-[(6S)-2-[(3R,4R)-4-amino-3-methoxy-3-methylpyrrolidin-1-yl]-5,6,7,8-tetrahydroquinolin-6-yl]-6-methylthieno[2,3-b]pyridine-2-carboxamide] | 6.70 to 7.30
11 | CN[C@H]1CN(c2ccc3c(c2)OC[C@H](NC(=O)c2sc4nc(C)ccc4c2N)C3)C[C@@H]1OC [Example 212, 3-amino-N-[(3R)-7-[(3S,4S)-3-methoxy-4-(methylamino)pyrrolidin-1-yl]-3,4-dihydro-2H-1-benzopyran-3-yl]-6-methylthieno[2,3-b]pyridine-2-carboxamide] | 7.30 to 9.00
12 | CO[C@H]1CN(c2ccc3c(c2)OC[C@H](NC(=O)c2sc4nc(C)ccc4c2N)C3)C[C@@H]1NC(C)=O [Example 213, 3-amino-N-[(3R)-7-[(3S,4S)-3-acetamido-4-methoxypyrrolidin-1-yl]-3,4-dihydro-2H-1-benzopyran-3-yl]-6-methylthieno[2,3-b]pyridine-2-carboxamide] | 6.70 to 7.30
13 | Cc1ccc2c(N)c(C(=O)N[C@H]3COc4cc(N5C[C@H](N)C(C)(C)C5)ccc4C3)sc2n1 [Example 214, 3-amino-N-[(3R)-7-[(4R)-4-amino-3,3-dimethylpyrrolidin-1-yl]-3,4-dihydro-2H-1-benzopyran-3-yl]-6-methylthieno[2,3-b]pyridine-2-carboxamide] | 7.30 to 9.00
14 | Cc1ccc2c(N)c(C(=O)N[C@H]3COc4cc(N5C[C@@H](N)C(C)(C)C5)ccc4C3)sc2n1 [Example 215, 3-amino-N-[(3R)-7-[(4S)-4-amino-3,3-dimethylpyrrolidin-1-yl]-3,4-dihydro-2H-1-benzopyran-3-yl]-6-methylthieno[2,3-b]pyridine-2-carboxamide] | 7.30 to 9.00
15 | Cc1ccc2c(N)c(C(=O)N[C@H]3CCc4nc(N5CC[C@H]6CNC[C@H]65)ccc4C3)sc2n1 [Example 216, N-[(6S)-2-[(3aS,6aS)-octahydropyrrolo[2,3-c]pyrrol-1-yl}-5,6,7,8-tetrahydroquinolin-6-yl]-3-amino-6-methylthieno[2,3-b]pyridine-2-carboxamide] | 7.30 to 9.00
16 | Cc1ccc2c(N)c(C(=O)N[C@H]3CCc4nc(N5CC[C@@H]6CNC[C@@H]65)ccc4C3)sc2n1 [Example 217, N-[(6S)-2-[(3aR,6aR)-octahydropyrrolo[2,3-c]pyrrol-1-yl]-5,6,7,8-tetrahydroquinolin-6-yl]-3-amino-6-methylthieno[2,3-b]pyridine-2-carboxamide] | 7.30 to 9.00
17 | Cc1cc(C)c2c(N)c(C(=O)N[C@H]3CCc4nc(N5CC[C@H]6CNC[C@H]65)ccc4C3)sc2n1 [Example 218, N-[(6S)-2-[(3aS 6aS)-octahydropyrrolo[2,3-c]pyrrol-1-yl]-5,6,7,8-tetrahydroquinolin-6-yl]-3-amino-4,6-dimethylthieno[2,3-b]pyridine-2-carboxamide] | 6.70 to 7.30
18 | Cc1cc(C)c2c(N)c(C(=O)N[C@H]3CCc4nc(N5CC[C@@H]6CNC[C@@H]65)ccc4C3)sc2n1 [Example 219, N-[(6S)-2-[(3aR,6aR)-octahydropyrrolo[2,3-c]pyrrol-1-yl]-5,6,7,8-tetrahydroquinolin-6-yl]-3-amino-4,6-dimethylthieno[2,3-b]pyridine-2-carboxamide] | 7.30 to 9.00
19 | Cc1ccc2c(N)c(C(=O)N[C@H]3COc4cc(N5CC[C@H]6CNC[C@H]65)cc(F)c4C3)sc2n1 [Example 220, N-[(3R)-7-[(3aS,6aS)-octahydropyrrolo[2,3-c]pyrrol-1-yl]-5-fluoro-3,4-dihydro-2H-1-benzopyran-3-yl]-3-amino-6-methylthieno[2,3-b]pyridine-2-carboxamide] | 7.30 to 9.00
20 | Cc1ccc2c(N)c(C(=O)N[C@H]3COc4cc(N5CC[C@@H]6CNC[C@@H]65)cc(F)c4C3)sc2n1 [Example 221, N-[(3R)-7-[(3aR,6aR)-octahydropyrrolo[2,3-c]pyrrol-1-yl]-5-fluoro-3,4-dihydro-2H-1-benzopyran-3-yl]-3-amino-6-methylthieno[2,3-b]pyridine-2-carboxamide] | 7.30 to 9.00
21 | Cc1ccc2c(N)c(C(=O)N[C@H]3COc4cc(N5CC[C@H]6CCNC[C@H]65)ccc4C3)sc2n1 [Example 224, N-[(3R)-7-[(3aR,7aS)-octahydro-1H-pyrrolo[2,3-c]pyridin-1-yl]-3,4-dihydro-2H-1-benzopyran-3-yl]-3-amino-6-methylthieno[2,3-b]pyridine-2-carboxamide] | 7.30 to 9.00
22 | Cc1ccc2c(N)c(C(=O)N[C@H]3COc4cc(N5CC[C@@H]6CCNC[C@@H]65)ccc4C3)sc2n1 [Example 225] | 7.30 to 9.00
23 | Cc1cc(C)c2c(N)c(C(=O)N[C@H]3COc4cc(N5CC[C@H]6CNC[C@H]65)ccc4C3)sc2n1 [Example 226, N-[(3R)-7-[(3aS,6aS)-octahydropyrrolo[2,3-c]pyrrol-1-yl]-3,4-dihydro-2H-1-benzopyran-3-yl]-3-amino-4,6-dimethylthieno[2,3-b]pyridine-2-carboxamide] | 7.30 to 9.00
